Reference: patent US20160039936A1, “FIBROBLAST GROWTH FACTOR RECEPTOR INHIBITION FOR THE TREATMENT OF DISEASE” (UNIVERSITY OF MIAMI, priority 2011, published 2016)

How the values were obtained:
[1] = system: FGFR; conditions: Hagel M et al 2015; cited from earlier work
[2] = system: isolated NRVM; assay: Cross-sectional area (hypertrophy) of isolated NRVM with receptor antagonists (Example 4); format: cell-based, rat; conditions: NRVM 48 h, PD173074 10 nM, AZD4547 5 nM, anti-FGFR4 10 μg/ml
Method: NRVM were isolated using a standard isolation system (Worthington Biochemical Corporation) (Faul et al., 2011). Hearts from 1-2 day old Sprague Dawley rats were harvested, minced in calcium-and magnesium-free Hank's Balanced Salt Solution (HBSS), and the tissue digested with 50 μg/ml trypsin at 4° C. for 20-24 hours. Soybean trypsin inhibitor in HBSS was added, and the tissue was further digested with collagenase (in Leibovitz L-15 medium) under slow rotation (15 rpm) at 37° C. for 45 minutes. Cells were released by triturating the suspension 20 times with a standard 10 ml plastic serological pipette and filtering it twice through a cell strainer (70 μm, BD Falcon). Cells were incubated at room temperature for 20 minutes and spun at 100 g for 5 minutes. The cell pellet was resuspended in plating medium [Dulbecco's Modified Eagle Medium (DMEM; Cellgro) with 17% Media 199 (Invitrogen), 15% fetal bovine serum (FBS; Invitrogen) and 1% penicillin/streptomycin solution (P/S; Invitrogen)]. Cells were counted using a hemocytometer.
Cells were plated on glass and plastic surfaces, which were coated with laminin (Invitrogen; 10 μg/ml in PBS) at room temperature for 1 hour prior to plating. For immunofluorescence analysis, 3×10^5 cells were seeded per well on glass coverslips in 24-well plates. For Western blot or qPCR analyses of total extracts, 1×10^6 cells were seeded per well in 6-well plates, and for immunoprecipitation assays, 5×10^6 cells were seeded in 10 cm-culture dishes. Cells were left undisturbed in plating medium at 37° C. for 72 hours and then cultured in maintenance medium (DMEM with 20% Media 199, 1% insulin-transferrin-sodium selenite solution [ITS; Sigma-Aldrich] and 1% P/S) in the presence of 100 μM 5-bromo-2′-deoxyuridine (BrdU; Sigam-Aldrich). After 4 days, isolated cardiac myocytes were cultured in BrdU-containing maintenance medium in the presence of recombinant murine FGF23 or FGF2 (both at 25 ng/ml) for different time points.
Cultured cells were fixed in 2% PFA (in 5 mg/ml sucrose) for 5 minutes and permeabilized in 1% Triton X-100 (in PBS) for 10 minutes. We analyzed hypertrophic growth of isolated NRVM and NMVM on laminin-coated glass coverslips after 48 hours of treatment with growth factors. For FGFR4 expression and localization analyses, untreated NMVM from wild-type and FGFR4^−/− mice were immunolabeled. The mouse monoclonal antibody against sarcomeric α-actinin (EA-53; Sigma-Aldrich) was used at 1:1,000, and rabbit polyclonal anti-FGFR4 (C-16; Santa Cruz) at 1:50. Cy3-conjugated goat-anti mouse and Alexa488-conjugated goat-anti rabbit (Jackson Immuno Research) were used as secondary antibodies at 1:300. To visualize nuclei, fixed cells were incubated with 4′,6-diamidino-2-phenylindole (DAPI; 400 ng/ml in PBS) for 10 minutes. Immunofluorescence images were taken on a Leica TCS-SP5 confocal microscope with a 63× oil objective.
Myocyte cross-sectional area was measured based on α-actinin-positive staining using Leica AF6000 fluorescence software. To assess the signaling pathways involved in FGF23- and FGF2-mediated hypertrophy, we analyzed the morphometry of plated cells that were pre-treated with specific inhibitors for 60 minutes prior to the addition of the FGFs at 25 ng/ml (NRVMs) or at 100 ng/ml (NMVMs). The following inhibitors and concentrations were used: pan-FGFR, PD173074 (Sigma-Aldrich) at 10 nM; FGFR1-3, AZD4547 (ChemieTek) at 5 nM; and FGFR4 blocking antibody (human monoclonal, U3-11; U3Pharma) at 10 μg/ml.

In the case of C=CC(=O)Nc1cccc(C)c1Nc1ncc2cc(-c3c(Cl)c(OC)cc(OC)c3Cl)ccc2n1 [BLU9931], the FGFR4 inhibition [1] is listed as “very potent and selective”.
For AZD4547, the “FGF2-induced hypertrophy (cross-sectional area) with receptor antagonist” value ([2]; FGF2 25 ng/ml) was “prevented” and the “FGF23-induced hypertrophy (cross-sectional area) with receptor antagonist” value ([2]; FGF23 25 ng/ml) was “but not FGF23-induced hypertrophy”.
